Data published in US6346539B1, “Treatment of skin conditions” (BTG International Limited, priority 1998, dated 2002).
Marks after values point to notes of the source that are not given here.

What was measured:
FM21E human melanocytes = assay: Effects of piperine and TPA on growth of human melanocytes, 24-well plate, SRB assay; format: cell-based
Procedure: (§1) In order to determine the specificity of piperine, a panel of different cell types were employed to facilitate this investigation. These included melan-a, melan-c, SVK14, CSM, XB2, SC1, B16F10, IM9, CACO2, Swiss 3T3 cell lines and normal human lymphocytes. TPA (20 nM) was also tested on these cells.
For the first protocol, subconfluent human melanocytes maintained in a Ø100 mm petri dish were subcultured into two 24-well plates (Falcon) using basic culture medium of RPMI 1640 supplemented with FBS (10%), bFGF (100 pM), CT (1 nM) and endothelin 1 (1 nM). The initial plating density was 20,000 cells/cm^2 (38,200 cells/well) with each well containing 1000 μl medium. After incubation in a 10% CO2, humidified atmosphere, at 37° C. for 2-3 hours to allow the attachment of the cells, piperine in 500 μl medium was added into wells to made up final concentrations of 0, 1, 5, 10 and 100 μM. Cells only in the medium with above supplement lacking of endothelin 1 were also set up as negative control. Six replicates were used in each group of treatment, and culture was incubated for 5 days before the cells were harvested by fixing with cold TCA (final concentration 20%) and processed with SRB assay. The solubilized SRB dye solution was transferred to a 96-well plate for optical density reading.

B16F10 mouse melanoma = assay: Effects of piperine and TPA on growth of B16F10 (panel); format: cell-based
Procedure: as §1

human melanocytes [1] = assay: Proliferation of human melanocytes cultured in petri dishes, haemocytometer count; format: cell-based
Procedure: (§2) For the second protocol, subconfluent human melanocytes were subcultured in a Ø60 mm petri dishes (28 cm^2, Falcon) with RPMI 1640 basic medium supplemented with FBS (10%), CT (1 nM), bFGF (100 pM) and endothelin 1 (1 nM). The initial plating density was 10,000 cells/cm^2, with 5 ml medium per dish. Cells were incubated for 2-3 hours in 10% CO2, humidified atmosphere, at 37° C., followed by addition of piperine solution in to the dishes, making the final concentrations of 0, 1, 5, 10 and 100 μM. Cells in the above supplemented medium lacking endothelin 1 were also set up as a negative control. Three dishes were used for each treatment and the culture was maintained for 5 days before cells were harvested with trypsinisation and counted with a haemocytometer chamber. For melanin production experiment, the harvested cells were centrifuged and pelleted. After carefully removing the medium, NaOH (1 M) was used to solubilized the cell pellets and optical density read at 475 nm in a Perkin-Elmer UV spectrophotometer (model UV/VIS Lambda 2). The melanin content was calculated by using a regression equation y=0.005+0.005× corresponding to the calibration curve for synthetic melanin.

Melan-a = assay: Effects of piperine and TPA on growth of Melan-a (panel of cell types); format: cell-based, mouse; conditions: piperine 0.1 and 1 μM (FIG. 4)
Procedure: Cells of mouse melan-a cell line (passage number 18-24), a first known line of non-tumorigenic pigmented mouse melanocytes were maintained in a flask (Costar, Cambridge, Mass., USA) using RPMI 1640 (ICN, Costa, Mesa, Calif., USA) as a basic medium. For microplate proliferation assays, subconfluent melan-a cultures were trypsinized (0.25% trypsin at 37° C. for 5-10 min) and inoculated with a repeater-pipettor (Finn pipette, Labsystems, Finland) into 96-well microtiter plates (Costar, Cambridge, Mass., USA). The plates were incubated at 37° C. in a 10% CO2, 90% air humidified atmosphere for the stated length of time. At the end of the incubation, an SRB assay was performed. Briefly, cells attached to the bottom of the plate were fixed by addition of cold trichloroacetic acid (TCA, 4° C., Aldrich, Dorset, UK) on the top of the growth medium (final TCA 20% w/v). The plate was placed at 4° C. for 1 hour before being gently washed five times with tap water. It was allowed to dry in air, or aided with a hair dryer to speed up the drying process, then 50 μl of 4% w/v SRB dissolved in 1% acetic acid in water was added to each well for 30 min. […] The plate was shaken for 15 min on a gyratory shaker followed by reading the optical density (OD) at 550 nm in a microplate spectrophotometer (Anthos Labtec HT3, version 1.06). […]

FM21E Melanoblast = assay: Effects of piperine and TPA on growth of human melanoblasts, SRB assay; format: cell-based
Procedure: as §1
Human melanoblasts in culture in this experiment were established from human foetal skin. Subconfluent melanoblasts maintained in MCDB 153 medium supplemented with 10% FBS, 10 ng/ml stem cell factor (SCF) and 1 nM endothelin 3 were subcultured and inoculated into 96-well microplate with 6×10^3 cells/100 μl/well. After incubation in the 10% CO2, humidified atmosphere, at 37° C. for 3-4 hours to allow the attachment of the cells on the plate, piperine dissolved in MeOH and water was added into the wells. The final concentrations of piperine were 1, 5, 10, 100 μM, with TPA (20 nM) as positive control. Six replicates were used in each group of treatment, with 12 wells used for vehicle control. The incubation was conducted for 5 days before cells were harvested by fixing with cold trichloroacetic acid (TCA, at 4° C., final concentration 20% v/v), and evaluated for cell number using an SRB assay. […] Growth in the presence of piperine and TPA was expressed as % of control incubations containing no piperine or TPA. […]

human melanocytes [2] = assay: Melanin production of human melanocytes cultured in petri dishes; format: cell-based; conditions: 5 days
Procedure: as §2

melan-a cells = assay: Proliferation of melan-a cells counted with haemocytometer; format: cell-based, mouse; parameters: unit not given here; conditions: 20 nM TPA; 4 days
Procedure: Melan-a cells were plated in petri dishes (Ø35 mm, Nunclon, Denmark) with a plating density of 2×10^4/ml and Piper nigrum extract at concentrations of 0.01 and 0.1 mg/ml. A negative control (cells in medium only) and positive TPA (20 nM) control were also set up. After 4 days the cells in each dish were harvested and counted with haemocytometer.

For O=C(/C=C/C=C/c1ccc2c(c1)OCO2)N1CCCCC1 [Piperine, (E,E)-1-[5-(1,3-benzodioxol-5-yl)-1-oxo-2,4-pentadienyl]piperidine], the more cells yielded (FM21E human melanocytes; 10 μM piperine for 5 days, 24-well plate, ET1 1 nM) was 36%, the “effect on the growth of human melanocytes” value (FM21E human melanocytes; piperine 100 μM, 24-well plate) was “inhibitory effect” and the “effect on B16 mouse melanoma cell line” value (B16F10 mouse melanoma) was “inhibitory effects”. For the same molecule, the “cell number relative to ET1 (1 nM) control” value (human melanocytes [1]; 5 μM piperine for 5 days, petri dishes) was “over twice as many”, the “Cell no. (×10^−4) ± SD after cultured for 5 days” value (from here on “Cell no. (×10^−4) ± SD”) (human melanocytes [1]; ET1 (1 nM) + piperine (1 μM)) was 60.83 ± 16.78 ×10^−4 and the “Cell no. (×10^−4) ± SD” value (human melanocytes [1]; ET1 (1 nM) + piperine (5 μM)) was 78.96 ± 5.63 ×10^−4. For the same molecule, the “Cell no. (×10^−4) ± SD” value (human melanocytes [1]; ET1 (1 nM) + piperine (10 μM)) was 64.79 ± 13.47 ×10^−4, the “Cell no. (×10^−4) ± SD” value (human melanocytes [1]; ET1 (1 nM) + piperine (100 μM)) was 61.04 ± 10.04 ×10^−4 and the activity at 1 µM (human melanocytes [1]; Homo sapiens, Melanocyte, 120 h, ET1 (1 nM) + piperine (1 μM), 5 days, read-out: % of control (ET1 1 nM)) was 169%. The activity at 5 µM (human melanocytes [1]; Homo sapiens, Melanocyte, 120 h, ET1 (1 nM) + piperine (5 μM), 5 days, read-out: % of control (ET1 1 nM)) was 219%, the activity at 10 µM (human melanocytes [1]; Homo sapiens, Melanocyte, 120 h, ET1 (1 nM) + piperine (10 μM), 5 days, read-out: % of control (ET1 1 nM)) was 180% and the activity at 100 µM (human melanocytes [1]; Homo sapiens, Melanocyte, 120 h, ET1 (1 nM) + piperine (100 μM), 5 days, read-out: % of control (ET1 1 nM)) was 169%. The “effect on melan-a proliferation” value (Melan-a) was “significantly stimulated melan-a proliferation”, the “more cell yield compared to vehicle control” value (FM21E Melanoblast; 100 μM piperine for 5 days) was 34% and the “Melanin content/10^4 cells” value (human melanocytes [2]; ET1 (1 nM) + piperine (1 μM)) was 0.42 ± 0.03 μg. The “OD reading ± SD at 475 nm” value (human melanocytes [2]; ET1 (1 nM) + piperine (1 μM)) was 0.134 ± 0.014, the “Melanin content/10^4 cells” value (human melanocytes [2]; ET1 (1 nM) + piperine (5 μM)) was 0.334 ± 0.01 μg and the “Melanin content/10^4 cells” value (human melanocytes [2]; ET1 (1 nM) + piperine (10 μM)) was 0.41 ± 0.07 μg. For the same molecule, the “Melanin content/10^4 cells” value (human melanocytes [2]; ET1 (1 nM) + piperine (100 μM)) was 0.46 ± 0.001 μg.

In the case of “tetradecanoyl phorbol acetate [TPA, reference compound]”, the cell number (melan-a cells) is reported as 5.0*, the “effect on the growth of human melanocytes” value (FM21E human melanocytes; TPA 20 nM in the presence of 1 nM endothelin 1) is reported as “not able to stimulate cell growth” and the “more cell yield compared to vehicle control” value (FM21E Melanoblast; TPA 20 nM for 5 days) is reported as “over 50%”.
